Results taken from patent publication US10912815B2, “Inhibitors of mitochondrial fission and methods of use thereof” (The Board of Trustees of the Leland Stanford Junior …, priority 2011, dated 2021).
No end group written: not given here.

What was measured:
[1] = system: Primary rat dopaminergic neurons; assay: Neurite loss of primary dopaminergic neurons exposed to MPP+ (TH staining); format: cell-based; details: P110 1 μM, MPP+ 1 μM, FIG. 10C
Protocol: Primary rat dopaminergic neurons (cultured for 6 days) were treated without or with P110 (1 μM) followed by treatment with or without MPP+(1 μM). Two hrs following MPP+ treatment, the cells were stained with MITOSOX™ red (to measure mitochondrial superoxide production) and anti-TH antibody (a marker of dopaminergic neurons). Fifteen hrs after MPP+ treatment, cells were stained with anti-TH antibody and anti-Tom20 antibody (a marker of mitochondria).

[2] = system: SH-SY5Y cells; assay: Total ROS production in SH-SY5Y cells (CM-H2DCFDA); format: cell-based, human; details: MPP+ and CCCP 24 hrs, FIG. 6E
Protocol: (§1) The effects of MPP+ or CCCP on translocation of Drp1 in the absence and presence of P110 was measured using confocal microscopy. Cultured SH-SY5Y cells in black 96-well plate were treated with Drp1 peptide inhibitor P110 (1 μM) 30 min prior to treatment of MPP+ (2 mM) or CCCP (5 uM). After 2 hrs of treatment, cells were stained with MITOSOX™ (red mitochondrial superoxide indicator) (5 uM, for 10 min, mitochondrial ROS) or TMRM (0.5 uM, for 20 min, MMP) at 37° C. For total ROS detection, cells were treated with MPP+ or CCCP for 24 hrs. ROS level was measured by CM-H2DCFDA (1 μM for 30 min, Invitrogen). Cells were washed with PBS for three times. The detection was performed in a fluorescence microplate reader (Tecan, Infinite M1000) according to manufacturer's instructions. Measurements were normalized to the cell number counted using Hoechst staining.
Mitochondrial membrane potential was also determined using TMRM (tetramethylrhodamine methylester). […] Fluoresence detection was performed using black 96-well plates in a fluorescence microplate reader at 560 nm excitation and 690 nm emission and potential was assessed by quenching of the fluorescent signal. […] A kinetic change of mitochondrial superoxide production was determined by using MITOSOX™ (red mitochondrial superoxide indicator). […]

[3] = system: isolated mouse liver mitochondria with Drp1 recombinant protein; assay: Cytochrome c levels in isolated mouse liver mitochondria incubated with Drp1; format: biochemical; details: 8 min of Drp1 incubation, FIG. 6D top
Protocol: (§2) Mitochondrial membrane potential was also determined using TMRM (tetramethylrhodamine methylester). Fifty μg of mitochondria were incubated with recombinant Drp1 (50 ng) followed by incubation with TMRM (0.5 μM) in the presence or absence of P110 (1 μM) or NAC (2.5 mM). Fluoresence detection was performed using black 96-well plates in a fluorescence microplate reader at 560 nm excitation and 690 nm emission and potential was assessed by quenching of the fluorescent signal. The data are presented as mean±S.E. of percentage relative to control mitochondria from three independent experiments (FIG. 6B, #, p<0.05 vs. control cells; *, p<0.05; **, P<0.01 vs. MPP+- or CCCP-treated cells). Isolated mouse liver mitochondria (50 μg) were incubated with Drp1 recombinant protein (50 ng) in the presence or absence of P110 (1 μM). A kinetic change of mitochondrial superoxide production was determined by using MITOSOX™ (red mitochondrial superoxide indicator). […] Mitochondrial membrane potential of isolated mouse liver mitochondria was determined by TMRM, as described above, in the indicated groups. […] Protein levels of cytochrome c in the mitochondria were determined by western blot analysis with anti-cytochrome c antibodies in the indicated groups (insert, FIG. 6D). Total ROS production was determined by staining SH-SY5Y cells with CM2HDCFA (1 μM […] at 37° C.) in the indicated groups. […]

[4] = system: isolated mouse liver mitochondria with Drp1 recombinant protein; assay: Membrane potential of isolated mouse liver mitochondria incubated with Drp1 (TMRM); format: biochemical; details: P110 1 μM, NAC 2.5 mM, FIG. 6D bottom
Protocol: Mitochondrial membrane potential was also determined using TMRM (tetramethylrhodamine methylester). Fifty μg of mitochondria were incubated with recombinant Drp1 (50 ng) followed by incubation with TMRM (0.5 μM) in the presence or absence of P110 (1 μM) or NAC (2.5 mM). Fluoresence detection was performed using black 96-well plates in a fluorescence microplate reader at 560 nm excitation and 690 nm emission and potential was assessed by quenching of the fluorescent signal. The data are presented as mean±S.E. of percentage relative to control mitochondria from three independent experiments (FIG. 6B, #, p<0.05 vs. control cells; *, p<0.05; **, P<0.01 vs. MPP+- or CCCP-treated cells). Isolated mouse liver mitochondria (50 μg) were incubated with Drp1 recombinant protein (50 ng) in the presence or absence of P110 (1 μM). A kinetic change of mitochondrial superoxide production was determined by using MITOSOX™ (red mitochondrial superoxide indicator). The data are presented as mean±S.E. of percentage relative to the value at basal level from three independent experiments (FIG. 6C, #, p<0.05 vs. control mitochondria; *, p<0.05 vs. mitochondria with the addition of Drp1). Mitochondrial membrane potential of isolated mouse liver mitochondria was determined by TMRM, as described above, in the indicated groups. NAC (2.5 mM) was used as a positive control (FIG. 6D). Protein levels of cytochrome c in the mitochondria were determined by western blot analysis with anti-cytochrome c antibodies in the indicated groups (insert, FIG. 6D). Total ROS production was determined by staining SH-SY5Y cells with CM2HDCFA (1 μM […] at 37° C.) in the indicated groups. The data are presented as mean±S.E. of percentage relative to control group from three independent experiments (FIG. 6E, *, p<0.05 vs. either MPP+ or CCCP treated-group; #, p<0.05 vs. control group).
The mitochondrial membrane potential of isolated mouse liver mitochondria was then measured in the presence or absence of P110.

[5] = system: SH-SY5Y cells; assay: Apoptosis of SH-SY5Y cells by annexin V staining; format: cell-based, human; details: 8 hours after MPP+ exposure, FIG. 9B
Protocol: Apoptosis was determined by annexin V staining 8 hours after MPP+ exposure. The number of apoptotic cells was expressed as mean±S.E. of percentage relative to total number of cells.

[6] = system: SH-SY5Y cells; assay: Mitochondrial superoxide production in SH-SY5Y cells (MITOSOX red); format: cell-based, human; details: peptide 1 μM, MPP+ 2 mM 2 hrs, FIG. 6A, FIG. 7
Protocol: as §1
SH-SY5Y cells were treated with P110 (1 μM) followed by incubation of MPP+ (2 mM) for 2 hrs. Mitochondrial superoxide production was determined using the mitochondrial superoxide indicator, MITOSOX™ red (red mitochondrial superoxide indicator). Nuclei were stained with Hoechst (blue). This experiment included the analysis of P110 alanine-scan analogs, further determine the contribution of each of the amino acids of the P110 fission inhibitor peptide sequence on the bioactivity of the peptide.

[7] = system: isolated mouse liver mitochondria with Drp1 recombinant protein; assay: Superoxide production of isolated mouse liver mitochondria after addition of recombinant Drp1; format: biochemical; details: isolated mouse liver mitochondria 50 μg, Drp1 50 ng, P110 1 μM, p<0.05, n=3, FIG. 6C
Protocol: as §2

[8] = target: Recombinant protein Drp1 (Homo sapiens, UniProt O00429); assay: In vitro GTPase assay, recombinant Drp1; format: biochemical
Recombinant protein Drp1, sequence (O00429 1-710 isoform O00429-3): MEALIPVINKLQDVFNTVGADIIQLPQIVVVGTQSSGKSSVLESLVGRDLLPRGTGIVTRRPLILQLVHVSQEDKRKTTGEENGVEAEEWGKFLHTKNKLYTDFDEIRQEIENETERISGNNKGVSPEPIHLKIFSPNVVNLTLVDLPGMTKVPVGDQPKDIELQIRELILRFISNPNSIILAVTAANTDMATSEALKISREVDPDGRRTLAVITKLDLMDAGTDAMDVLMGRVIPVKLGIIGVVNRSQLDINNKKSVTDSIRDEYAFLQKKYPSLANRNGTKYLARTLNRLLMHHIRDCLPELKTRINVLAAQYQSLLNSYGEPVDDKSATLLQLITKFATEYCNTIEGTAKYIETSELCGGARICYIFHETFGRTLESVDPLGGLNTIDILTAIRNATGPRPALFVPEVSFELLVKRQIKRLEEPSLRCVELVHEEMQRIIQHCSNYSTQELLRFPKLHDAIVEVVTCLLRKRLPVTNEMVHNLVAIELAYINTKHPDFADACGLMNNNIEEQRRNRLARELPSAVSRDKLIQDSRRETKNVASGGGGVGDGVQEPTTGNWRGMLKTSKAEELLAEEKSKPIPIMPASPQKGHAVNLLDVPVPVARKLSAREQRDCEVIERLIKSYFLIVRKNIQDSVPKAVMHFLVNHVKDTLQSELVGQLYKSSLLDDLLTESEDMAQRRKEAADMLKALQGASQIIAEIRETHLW
Protocol: First, mitochondrial fission inhibitor constructs were tested to determine what, if any, effects each peptide had on enzyme (GTPase) activity. Recombinant protein Drp1, Mfn1, OPA1 or dynamin-1 (25 ng) was incubated with the indicated modulator peptides for 30 min. GTPase activity was assayed in vitro using a GTPase assay kit (Innova Biosciences, Littleton, USA, or Novus Biologicals, Littleton, Colo.) according to manufacturer's instructions.

“RRRQRRKKRGYGGDLLPRGS (RRRQRRKKRGYGGDLLPRGS-NH2) [P110, TAT47-57 carrier, GG linker, Drp1 region 110 (GTPase domain) peptide DLLPRGS; C-terminus C(O)-NH2]” was tested, and the “neurite loss of dopaminergic neurons (TH)” value [1] was “reduced neurite loss”, the “total ROS produced by the mitochondrial stressors” value [2] was “greatly reduced” and the “cytochrome c release from the mitochondria” value [3] was “inhibited cytochrome c release”. The “mitochondrial membrane potential (MMP) of isolated mitochondria after Drp1 addition” value [4] was “improved the MMP”, the “number of apoptotic cells (annexin V)” value [5] was “greatly reduced” and the “MPP+-induced production of mitochondrial superoxide” value [6] was “abolished”. The “Drp1-induced ROS (superoxide) elevation in the mitochondria” value [7] was “abolished”, the “specifically inhibited Drp1 GTPase activity” value ([8]; in vitro GTPase assay, n=3, first statement of b271) was 30% and the “inhibition in the GTPase activity of recombinant Drp1” value ([8]; recombinant Drp1 25 ng, 30 min incubation with peptide, FIG. 2A) was 50%.
